# Values of other authors as cited in patent US12728131B2, “Compositions for the treatment of glaucoma and ocular hypertension” (Nicox S.A., priority 2020, dated 2026).
# Where two headings read alike, the source gives them in different places.
# Conditions: phase 2 dose-ranging VOYAGER study
SMILES,reduction in mean diurnal IOP (0.005%) [mmHg],reduction in mean diurnal IOP (0.024%) [mmHg]
"CC(C)OC(=O)CCC/C=C\C[C@@H]1[C@@H](CC[C@@H](O)CCc2ccccc2)[C@H](O)C[C@@H]1O [latanoprost, propan-2-yl (Z)-7-[(1R,2R,3R,5S)-3,5-dihydroxy-2-[(3R)-3-hydroxy-5-phenylpentyl]cyclopentyl]hept-5-enoate]",7.77,–
O=C(CCC/C=C\C[C@@H]1[C@@H](CC[C@@H](O)CCc2ccccc2)[C@H](O)C[C@@H]1O)OCCCCO[N+](=O)[O-] [latanoprostene bunod],–,9.0
